In ChEMBL document CHEMBL4765406 (Eur J Med Chem, 2020) one finds IC50 and inhibition data, which are given here for 6 compounds.

Molecules are shown by their SMILES. pIC50: −log10 of the molar value. Calls of active or inactive are those of the source. The rule behind the calls is not given here.

The term pIC50 denotes −log10 of the IC50, conventionally taken in molar units.

Experiment [1] concerns the target T1, Tyrosine-protein kinase BTK (Homo sapiens, UniProt Q06187). As to the kind of experiment: Inhibition of BTK (unknown origin) using poly(Glu, Tyr) 4:1 as substrate incubated in presence of [gamma33P]ATP by image analyser.
For experiment [2], the target named is T1, Tyrosine-protein kinase BTK. As to the kind of experiment: Inhibition of BTK in human Ramos cells assessed as reduction in anti-human IgM F(ab)2-induced ERK phosphorylation preincubated for 10 mins followed by stimulated with antihuman IgM F(ab)2 incubated for 60 mins by Western blot analysis. Format: cell-based. The note with it: time 70.0 min. For orientation: In western blotting, separated proteins are transferred to a membrane and probed.

For experiment [3] the target is unchanged. As to the kind of experiment: Inhibition of BTK in human Ramos cells assessed as reduction in anti-human IgM F(ab)2-induced BTK phosphorylation at Tyr223 residue preincubated for 10 mins followed by stimulated with antihuman IgM F(ab)2 incubated for 60 mins by Western blot analysis. Format: cell-based. The note with it: time 1.0 hrs.
For experiment [4] the target is unchanged. Briefly: Inhibition of BTK in human Ramos cells assessed as reduction in anti-human IgM F(ab)2-induced BTK phosphorylation at Tyr551 residue preincubated for 10 mins followed by stimulated with antihuman IgM F(ab)2 incubated for 60 mins by Western blot analysis. The note with it: time 70.0 min. The format is cell-based.
For experiment [5] the target is unchanged. Briefly: Inhibition of BTK in human Ramos cells assessed as reduction in anti-human IgM F(ab)2-induced BCR mediated PLCgamma2 phosphorylation preincubated for 10 mins followed by stimulated with antihuman IgM F(ab)2 incubated for 60 mins by Western blot analysis. Format: cell-based. The note with it: time 70.0 min.

T1 sequence (Q06187 whole entry): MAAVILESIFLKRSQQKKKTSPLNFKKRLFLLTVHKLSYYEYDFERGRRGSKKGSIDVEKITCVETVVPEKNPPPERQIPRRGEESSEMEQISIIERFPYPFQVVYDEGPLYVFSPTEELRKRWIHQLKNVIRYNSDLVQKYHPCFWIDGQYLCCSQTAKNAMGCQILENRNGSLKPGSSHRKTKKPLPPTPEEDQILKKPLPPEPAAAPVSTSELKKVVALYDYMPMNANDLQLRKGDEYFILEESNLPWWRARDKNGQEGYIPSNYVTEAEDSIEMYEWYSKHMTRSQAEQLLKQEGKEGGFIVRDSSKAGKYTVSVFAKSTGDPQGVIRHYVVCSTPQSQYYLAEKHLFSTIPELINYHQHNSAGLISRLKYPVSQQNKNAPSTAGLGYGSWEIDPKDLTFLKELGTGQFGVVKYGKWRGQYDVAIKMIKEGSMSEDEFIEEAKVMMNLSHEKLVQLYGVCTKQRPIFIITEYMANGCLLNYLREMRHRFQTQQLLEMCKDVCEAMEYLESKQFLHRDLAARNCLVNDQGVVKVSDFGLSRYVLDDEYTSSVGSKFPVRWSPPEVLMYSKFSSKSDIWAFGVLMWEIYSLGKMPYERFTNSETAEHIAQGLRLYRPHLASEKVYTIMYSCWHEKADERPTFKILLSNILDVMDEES

As for `c1cc2nc(-c3ccc4cn[nH]c4c3)nc(Nc3ccc(N4CCOCC4)cc3)c2[nH]1`, in experiment [1], the negative-log IC50 (pIC50) was < 4.70.

Consider `c1nc2c(Nc3ccc(N4CCOCC4)cc3)nc(-c3ccc4cn[nH]c4c3)nc2[nH]1`, for which the pIC50 in experiment [1] is 7.14.

Take `c1nc2c(Nc3ccc(N4CCOCC4)cc3)cc(-c3ccc4cn[nH]c4c3)nc2[nH]1`: the pIC50 in experiment [1] is 5.84.

For `c1nc2c(Nc3ccc(N4CCOCC4)cc3)nc(-c3ccc4cn[nH]c4c3)cc2[nH]1`, the negative-log IC50 (pIC50) in experiment [1] was 6.43. For the same compound, the inhibition result in experiment [2] was “inactive”.

As to `c1cc(N2CCOCC2)ccc1Nc1nc(-c2ccc3cn[nH]c3c2)nc2[nH]ncc12`, the negative logarithm of the IC50 (pIC50) in experiment [1] was 6.78.

Turning to `c1cn2cc(-c3ccc4cn[nH]c4c3)nc(Nc3ccc(N4CCOCC4)cc3)c2n1` [ENTOSPLETINIB], the negative-log IC50 (pIC50) in experiment [1] was 6.10. For the same compound, the inhibition entry in experiment [3], in experiment [4], in experiment [2] and in experiment [5] was “Active” in each case.
